The text below walks through data of patent US20070087021A1, “METHOD OF PROTECTING AGAINST CHRONIC INFECTIONS” (priority 1997, published 2007).

Assay [1] deals with coccidiosis. The experiment in a line: Paired-barn comparison repeated: vaccine/monensin treatment vs monensin alone. The settings on record: cockerels. The class given is in vivo, poultry. As to the method: (§1) A gel form vaccine was prepared by first adding 200 ml of hot tap water to 5 gm of kappa carrageenan Bengel MB 910 in a container and mixing until the MB 910 had dissolved. To this solution was added 200 ml of a solution containing 500 oocysts per ml of a mixture of Eimeria acervulina, E. maxima and E. tenella and the combined solution was mixed. The solution was then poured into a plastic watering dish and allowed to cool and get at 4° C.
(§2) A paired-barn comparison was conducted between use of a anticoccidial ionophore and the method of the present invention for protecting poultry against coccidiosis. 51,000 birds were divided into two groups. One group was maintained on feed containing 60 mg per kilogram of feed of salinomycin sodium COXISTAC (Pfizer). The second group was administered the vaccine prepared in accordance with Example 1 on Day 1. These birds were maintained on feed with no medication for 10 days. Thereafter, 60 mg per kilogram of salinomycin sodium was utilized in the feed for a further 10 days after which the animals were maintained on non-medicated feed until shipping. A virginiamysin based growth promotant STAFAC (SmithKline Beecham) at a level of 11 mg per kilogram of feed was used as a growth promotant in both groups.
The above example was repeated comparing vaccine/monensin treatment with monensin alone and the results from this are shown in Table 2.

For assay [2], the system named is coccidiosis. Put plainly: Paired-barn comparison of anticoccidial ionophore (salinomycin) vs vaccine plus salinomycin for protecting poultry against coccidiosis. The class given is in vivo. As for the experimental part: as §1, §2
Setting [3] is: birds, market age 42 days / 52 days.

Each structure is given as a SMILES string.

As to `CC[C@@]1([C@@H]2O[C@@H]([C@H]3O[C@@](O)(CO)[C@H](C)C[C@@H]3C)C[C@@H]2C)CC[C@H]([C@]2(C)CC[C@]3(C[C@H](O)[C@@H](C)[C@@H]([C@@H](C)[C@@H](OC)[C@H](C)C(=O)O)O3)O2)O1` [Monesin, monensin], in the assay with coccidiosis [1], the “EEF (European Efficiency Factor)” value is on record as 2.23 and the “Feed Conversion Ratio” value is given as 2.19. For the same compound, in the assay with coccidiosis [1] (average at market (Monesin group: market age 47 days)), the “Avg. Weight” value is 2.44 kg. The “Livability (%)” value in the assay on coccidiosis [1] (vaccine group: 2 weeks no medication, then 2 weeks monensin in feed) was found to be 94.1%.
Take `CC[C@@H](C(=O)[C@@H](C)[C@@H](O)[C@H](C)[C@@H]1O[C@@H]([C@@H](CC)C(=O)O)CC[C@@H]1C)[C@H]1O[C@]2(C=C[C@@H](O)[C@]3(CC[C@@](C)([C@H]4CC[C@](O)(CC)[C@H](C)O4)O3)O2)[C@H](C)C[C@@H]1C` [Salinomycin, salinomycin sodium]: in the assay with coccidiosis [2] (setting [3]), the “Avg. Weight” value is 2.72 kg and the “Feed Conversion Ratio” value is recorded as 2.16. For the same compound, the “Livability (%)” value in the assay with coccidiosis [2] (birds, market age 42 days / 52 days, salinomycin sodium 60 mg per kg feed (vaccine group: 10 days no medication, then 10 days salinomycin)) was determined as 91.8%. Further, the “EEF (European Efficiency Factor)” value in the assay with coccidiosis [2] (related to percent livability, average market weight, feed conversion rate and market age) worked out at 2.23.
